# Measured values: patent EP4745135A1 (Gluetacs Therapeutics (Shanghai) Co., Ltd., priority 2023, dated 2025)
# Experiments:
# [1] = target: T1, CK1α (Homo sapiens, UniProt P48729+Q96SW2); assay: Western blot, degradation of substrate protein in hPBMCs; format: cell-based
# T1 construct: effects of the compounds of the present disclosure on the expression of target proteins in cells; endogenous in cells; host or cells: human PBMCs (Milecell Biotechnologies)
# [2] = target: T2, IKZF1 (Homo sapiens, UniProt Q13422+Q96SW2); assay: as above; format: cell-based
# T2 construct: effects of the compounds of the present disclosure on the expression of target proteins in cells; endogenous in cells; host or cells: human PBMCs (Milecell Biotechnologies)
# [3] = target: T3, IKZF2 (Homo sapiens, UniProt Q96SW2+Q9UKS7); assay: as above; format: cell-based
# T3 construct: effects of the compounds of the present disclosure on the expression of target proteins in cells; endogenous in cells; host or cells: human PBMCs (Milecell Biotechnologies)
# [4] = target: T4, IKZF3 (Homo sapiens, UniProt Q96SW2+Q9UKT9); assay: as above; format: cell-based
# T4 construct: effects of the compounds of the present disclosure on the expression of target proteins in cells; endogenous in cells; host or cells: human PBMCs (Milecell Biotechnologies)
# [5] = target: T5, WEE1 (Homo sapiens, UniProt P30291+Q96SW2); assay: as above; format: cell-based
# T5 construct: effects of the compounds of the present disclosure on the expression of target proteins in cells; endogenous in cells; host or cells: human PBMCs (Milecell Biotechnologies)
# [6] = system: GSPT1; assay: as above; format: cell-based, Human
# [7] = target: T6, human Cereblon WT GST-tagged protein (Homo sapiens, UniProt Q96SW2); assay: CRBN-binding affinity, HTRF (CEREBLON BINDING kit); details: for IC50: CRBN binding, HTRF, 3 hours at room temperature, read-out: HTRF IC50; for inhibition at 0.5 µM: read-out: Inhibition Rate at 0.5 µM (%); for inhibition at 2 µM: read-out: Inhibition Rate at 2 µM (%)
# T6 construct: purchased CISBIO 64BDCRBNPEH
# [8] = Western blot, 24 hours of compound treatment, compounds tested at 50 nM and 500 nM (concentration for the table not stated)
# [9] = 24 hours treatment, compounds at 50 nM and 500 nM (concentration behind the class not stated)
# T2 sequence (Q13422 whole entry): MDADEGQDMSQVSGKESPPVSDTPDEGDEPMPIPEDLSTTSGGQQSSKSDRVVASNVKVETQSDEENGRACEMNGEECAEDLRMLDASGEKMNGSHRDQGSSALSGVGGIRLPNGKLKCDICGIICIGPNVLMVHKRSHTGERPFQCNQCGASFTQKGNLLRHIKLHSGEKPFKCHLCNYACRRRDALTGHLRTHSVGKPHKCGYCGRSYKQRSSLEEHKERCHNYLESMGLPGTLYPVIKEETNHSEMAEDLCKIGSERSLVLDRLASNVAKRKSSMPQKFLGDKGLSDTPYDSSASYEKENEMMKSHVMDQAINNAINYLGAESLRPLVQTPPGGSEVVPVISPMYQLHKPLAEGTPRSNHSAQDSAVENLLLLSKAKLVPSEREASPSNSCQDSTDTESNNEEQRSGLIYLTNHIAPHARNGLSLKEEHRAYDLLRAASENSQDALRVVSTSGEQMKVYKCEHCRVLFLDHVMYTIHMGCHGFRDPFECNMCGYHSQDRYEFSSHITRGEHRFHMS
# T2 sequence (Q96SW2 whole entry): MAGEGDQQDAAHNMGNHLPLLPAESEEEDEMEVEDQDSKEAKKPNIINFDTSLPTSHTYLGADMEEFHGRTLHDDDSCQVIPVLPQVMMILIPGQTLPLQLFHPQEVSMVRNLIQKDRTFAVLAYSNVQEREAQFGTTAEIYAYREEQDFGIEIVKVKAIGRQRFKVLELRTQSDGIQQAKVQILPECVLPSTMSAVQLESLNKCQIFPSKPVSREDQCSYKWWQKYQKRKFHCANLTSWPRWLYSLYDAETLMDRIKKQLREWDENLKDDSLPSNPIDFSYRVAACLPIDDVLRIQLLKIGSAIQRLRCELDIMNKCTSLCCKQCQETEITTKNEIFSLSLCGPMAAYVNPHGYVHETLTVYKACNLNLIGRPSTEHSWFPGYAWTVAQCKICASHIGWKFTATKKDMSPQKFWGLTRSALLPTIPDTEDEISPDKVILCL
# T2 sequence (Q16531 whole entry partner): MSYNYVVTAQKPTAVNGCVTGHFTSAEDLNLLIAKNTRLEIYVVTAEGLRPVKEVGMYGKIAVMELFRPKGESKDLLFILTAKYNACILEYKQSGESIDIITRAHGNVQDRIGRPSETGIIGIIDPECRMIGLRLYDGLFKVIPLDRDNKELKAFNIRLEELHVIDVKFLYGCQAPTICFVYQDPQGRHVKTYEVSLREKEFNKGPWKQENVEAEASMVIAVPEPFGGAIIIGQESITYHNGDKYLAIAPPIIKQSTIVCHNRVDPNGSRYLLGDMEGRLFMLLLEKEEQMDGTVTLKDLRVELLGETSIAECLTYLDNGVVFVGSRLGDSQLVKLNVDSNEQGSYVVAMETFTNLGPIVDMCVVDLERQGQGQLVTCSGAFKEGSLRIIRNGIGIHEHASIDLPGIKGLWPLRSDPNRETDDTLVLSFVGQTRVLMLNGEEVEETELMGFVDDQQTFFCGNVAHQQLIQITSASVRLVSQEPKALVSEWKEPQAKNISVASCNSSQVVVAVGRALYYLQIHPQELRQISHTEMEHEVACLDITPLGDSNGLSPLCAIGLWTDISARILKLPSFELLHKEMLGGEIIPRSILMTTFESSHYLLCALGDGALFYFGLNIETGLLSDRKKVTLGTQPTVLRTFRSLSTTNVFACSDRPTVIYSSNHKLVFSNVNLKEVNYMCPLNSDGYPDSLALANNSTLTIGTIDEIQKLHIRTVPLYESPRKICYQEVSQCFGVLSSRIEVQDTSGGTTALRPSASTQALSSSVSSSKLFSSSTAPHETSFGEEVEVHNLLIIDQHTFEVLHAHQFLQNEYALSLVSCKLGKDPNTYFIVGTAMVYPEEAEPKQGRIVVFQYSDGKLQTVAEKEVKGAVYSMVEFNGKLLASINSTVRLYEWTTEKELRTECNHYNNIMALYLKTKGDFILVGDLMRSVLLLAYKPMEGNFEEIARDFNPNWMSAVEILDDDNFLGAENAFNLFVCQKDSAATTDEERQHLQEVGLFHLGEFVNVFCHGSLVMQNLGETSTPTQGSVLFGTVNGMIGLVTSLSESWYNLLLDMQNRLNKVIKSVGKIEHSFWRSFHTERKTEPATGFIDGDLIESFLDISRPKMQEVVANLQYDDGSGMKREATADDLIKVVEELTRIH
# T3 sequence (Q9UKS7 whole entry): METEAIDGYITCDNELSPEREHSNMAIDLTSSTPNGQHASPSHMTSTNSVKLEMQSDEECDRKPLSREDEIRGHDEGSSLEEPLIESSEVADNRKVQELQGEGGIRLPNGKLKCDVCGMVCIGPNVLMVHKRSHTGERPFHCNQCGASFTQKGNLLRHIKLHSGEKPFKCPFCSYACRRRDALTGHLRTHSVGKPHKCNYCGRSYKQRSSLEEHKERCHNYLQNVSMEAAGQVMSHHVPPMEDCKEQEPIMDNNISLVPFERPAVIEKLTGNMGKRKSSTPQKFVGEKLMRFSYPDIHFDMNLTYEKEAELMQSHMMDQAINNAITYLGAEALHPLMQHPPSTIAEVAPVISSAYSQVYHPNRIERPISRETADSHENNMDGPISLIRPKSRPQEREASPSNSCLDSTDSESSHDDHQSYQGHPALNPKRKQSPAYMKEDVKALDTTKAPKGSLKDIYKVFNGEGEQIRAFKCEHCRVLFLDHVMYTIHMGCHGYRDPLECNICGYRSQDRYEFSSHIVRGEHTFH
# T3 sequence (Q96SW2 whole entry): as the sequence (Q96SW2 whole entry) above
# T3 sequence (Q16531 whole entry partner): as the sequence (Q16531 whole entry partner) above
# T6 sequence (Q96SW2 whole entry): as the sequence (Q96SW2 whole entry) above
# T5 sequence (P30291 whole entry): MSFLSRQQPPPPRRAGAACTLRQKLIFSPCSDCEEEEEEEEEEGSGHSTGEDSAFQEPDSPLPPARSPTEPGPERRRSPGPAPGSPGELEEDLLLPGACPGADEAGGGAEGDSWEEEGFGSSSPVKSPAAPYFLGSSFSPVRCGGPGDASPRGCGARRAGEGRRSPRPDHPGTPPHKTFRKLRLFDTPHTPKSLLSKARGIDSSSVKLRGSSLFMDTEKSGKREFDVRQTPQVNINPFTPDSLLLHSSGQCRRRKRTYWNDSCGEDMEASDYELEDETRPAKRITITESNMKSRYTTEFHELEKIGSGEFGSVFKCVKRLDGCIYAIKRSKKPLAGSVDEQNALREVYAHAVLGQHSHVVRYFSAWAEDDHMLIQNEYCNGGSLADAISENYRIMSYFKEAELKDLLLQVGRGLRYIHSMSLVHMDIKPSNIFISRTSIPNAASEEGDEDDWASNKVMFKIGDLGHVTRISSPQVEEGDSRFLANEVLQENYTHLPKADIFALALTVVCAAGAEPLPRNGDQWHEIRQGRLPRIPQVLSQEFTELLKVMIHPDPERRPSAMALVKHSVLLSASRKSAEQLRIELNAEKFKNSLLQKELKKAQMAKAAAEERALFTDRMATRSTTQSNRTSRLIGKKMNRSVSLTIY
# T5 sequence (Q96SW2 whole entry): as the sequence (Q96SW2 whole entry) above
# T5 sequence (Q16531 whole entry partner): as the sequence (Q16531 whole entry partner) above
# T4 sequence (Q9UKT9 whole entry): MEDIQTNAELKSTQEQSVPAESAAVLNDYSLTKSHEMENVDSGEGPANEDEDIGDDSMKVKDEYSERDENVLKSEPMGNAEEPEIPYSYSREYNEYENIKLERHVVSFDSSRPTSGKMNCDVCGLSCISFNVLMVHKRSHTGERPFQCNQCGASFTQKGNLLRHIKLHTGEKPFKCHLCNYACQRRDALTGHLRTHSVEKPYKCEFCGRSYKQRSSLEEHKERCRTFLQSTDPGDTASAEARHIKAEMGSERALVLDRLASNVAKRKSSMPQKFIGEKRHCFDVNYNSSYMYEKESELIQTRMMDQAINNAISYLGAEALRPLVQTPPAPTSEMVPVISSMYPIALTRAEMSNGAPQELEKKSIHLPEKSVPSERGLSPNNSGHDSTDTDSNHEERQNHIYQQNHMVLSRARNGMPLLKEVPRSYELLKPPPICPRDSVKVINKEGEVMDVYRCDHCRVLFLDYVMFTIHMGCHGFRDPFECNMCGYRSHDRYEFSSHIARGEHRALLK
# T4 sequence (Q96SW2 whole entry): as the sequence (Q96SW2 whole entry) above
# T4 sequence (Q16531 whole entry partner): as the sequence (Q16531 whole entry partner) above
# T1 sequence (P48729 whole entry): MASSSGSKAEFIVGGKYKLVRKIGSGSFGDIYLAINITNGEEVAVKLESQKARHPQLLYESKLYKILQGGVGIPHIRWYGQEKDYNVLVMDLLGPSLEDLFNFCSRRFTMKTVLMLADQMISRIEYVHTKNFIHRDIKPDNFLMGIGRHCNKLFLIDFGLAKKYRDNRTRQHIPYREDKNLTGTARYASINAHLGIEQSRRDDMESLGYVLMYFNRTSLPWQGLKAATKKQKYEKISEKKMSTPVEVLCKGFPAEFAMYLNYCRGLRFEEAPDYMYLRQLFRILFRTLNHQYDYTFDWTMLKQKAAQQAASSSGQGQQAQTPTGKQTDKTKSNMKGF
# T1 sequence (Q96SW2 whole entry): as the sequence (Q96SW2 whole entry) above
# T1 sequence (Q16531 whole entry partner): as the sequence (Q16531 whole entry partner) above
Structure (SMILES),"CK1α substrate protein remaining % [1, 8]","IKZF 1 substrate protein remaining % [2, 8]","IKZF2 substrate protein remaining % [3, 8]","IKZF3 substrate protein remaining % [4, 8]","Wee1 substrate protein remaining % [5, 8]","GSPT1 substrate protein remaining % [6, 8]",IC50 [7],"CK1α substrate protein remaining % [1, 9]","IKZF 1 substrate protein remaining % [2, 9]","IKZF2 substrate protein remaining % [3, 9]","IKZF3 substrate protein remaining % [4, 9]","Wee1 substrate protein remaining % [5, 9]","GSPT1 substrate protein remaining % [6, 9]",inhibition at 0.5 µM [7],inhibition at 2 µM [7]
"Cc1ccc(N2CCN(Cc3ccc4c(c3)CN(C3CCC(=O)NC3=O)C4=S)CC2)s1 (centres unmarked) [GT-05110, 3-(5-((4-(5-methylthiophen-2-yl)piperazin-1-yl)methyl)-1-thioxoisoindolin-2-yl)piperidine-2,6-dione]",B (80%< substrate protein remaining %≤ 100%),B (80%< substrate protein remaining %≤ 100%),B (80%< substrate protein remaining %≤ 100%),B (80%< substrate protein remaining %≤ 100%),B (80%< substrate protein remaining %≤ 100%),A (0% ≤ substrate protein remaining % ≤ 80%),100 to 500 nM,,,,,,,,
"O=C1CCC(N2Cc3cc(CN4CCC(c5noc6cc(F)ccc56)CC4)ccc3C2=S)C(=O)N1 (centres unmarked) [GT-05089, 3-(5-((4-(6-fluorobenzo[d]isoxazol-3-yl)piperidin-1-yl)methyl)-1-thioxoisoindolin-2-yl)piperidine-2,6-dione]",B (80%< substrate protein remaining %≤ 100%),B (80%< substrate protein remaining %≤ 100%),B (80%< substrate protein remaining %≤ 100%),B (80%< substrate protein remaining %≤ 100%),B (80%< substrate protein remaining %≤ 100%),A (0% ≤ substrate protein remaining % ≤ 80%),< 100 nM,,,,,,,,
"Cc1nc(C2CCN(Cc3ccc4c(c3)CN(C3CCC(=O)NC3=O)C4=S)CC2)c2ccsc2n1 (centres unmarked) [GT-09309, 3-(5-((4-(2-methylthieno[2,3-d]pyrimidin-4-yl)piperidin-1-yl)methyl)-1-thioxoisoindolin-2-yl)piperidine-2,6-dione]",,,,,,,,B (80%< substrate protein remaining %≤ 100%),B (80%< substrate protein remaining %≤ 100%),B (80%< substrate protein remaining %≤ 100%),B (80%< substrate protein remaining %≤ 100%),B (80%< substrate protein remaining %≤ 100%),A (0% ≤ substrate protein remaining % ≤ 80%),60 to 80%,80 to 100%
"CC1(C)CN(Cc2cccc3c2CN(C2CCC(=O)NC2=O)C3=S)CCN1C(c1ccccc1)c1ccccc1 (centres unmarked) [GT-08231, 3-(4-((4-benzhydryl-3,3-dimethylpiperazin-1-yl)methyl)-1-thioxoisoindolin-2-yl)piperidine-2,6-dione]",B (80%< substrate protein remaining %≤ 100%),B (80%< substrate protein remaining %≤ 100%),A (0% ≤ substrate protein remaining % ≤ 80%),B (80%< substrate protein remaining %≤ 100%),A (0% ≤ substrate protein remaining % ≤ 80%),A (0% ≤ substrate protein remaining % ≤ 80%),,,,,,,,53 to 60%,60 to 80%
"O=C1CCC(N2Cc3cc(CN4CCN(c5ncnc6sc7c(c56)CCC7)CC4)ccc3C2=S)C(=O)N1 (centres unmarked) [GT-09301, 3-(5-((4-(6,7-dihydro-5H-cyclopenta[4,5]thieno[2,3-d]pyrimidin-4-yl)piperazin-1-yl)methyl)-1-thioxoisoindolin-2-yl)piperidine-2,6-dione]",,,,,,,,B (80%< substrate protein remaining %≤ 100%),A (0% ≤ substrate protein remaining % ≤ 80%),A (0% ≤ substrate protein remaining % ≤ 80%),A (0% ≤ substrate protein remaining % ≤ 80%),B (80%< substrate protein remaining %≤ 100%),B (80%< substrate protein remaining %≤ 100%),60 to 80%,80 to 100%
"O=C1CCC(N2Cc3c(CN4CCN(c5cc(F)cc(F)c5)CC4)cccc3C2=S)C(=O)N1 (centres unmarked) [GT-08632, 3-(4-((4-(3,5-difluorophenyl)piperazin-1-yl)methyl)-1-thioxoisoindolin-2-yl)piperidine-2,6-dione]",B (80%< substrate protein remaining %≤ 100%),B (80%< substrate protein remaining %≤ 100%),B (80%< substrate protein remaining %≤ 100%),B (80%< substrate protein remaining %≤ 100%),A (0% ≤ substrate protein remaining % ≤ 80%),B (80%< substrate protein remaining %≤ 100%),,,,,,,,60 to 80%,80 to 100%
"O=C1CCC(N2Cc3c(CN4CC(N5CCc6cc(F)ccc65)C4)cccc3C2=S)C(=O)N1 (centres unmarked) [GT-08635, 3-(4-((3-(5-fluoroindolin-1-yl)azetidin-1-yl)methyl)-1-thioxoisoindolin-2-yl)piperidine-2,6-dione]",B (80%< substrate protein remaining %≤ 100%),B (80%< substrate protein remaining %≤ 100%),B (80%< substrate protein remaining %≤ 100%),B (80%< substrate protein remaining %≤ 100%),A (0% ≤ substrate protein remaining % ≤ 80%),B (80%< substrate protein remaining %≤ 100%),,,,,,,,80 to 100%,80 to 100%
"CC1(C)CCC(CN2C3CCC2CN(Cc2cccc4c2CN(C2CCC(=O)NC2=O)C4=S)C3)=C(c2ccc(Cl)cc2)C1 (centres unmarked) [GT-08291, 3-(4-((8-((4'-chloro-5,5-dimethyl-3,4,5,6-tetrahydro-[1,1-biphenyl]-2-yl)methyl)-3,8-diazabicyclo[3.2.1]octan-3-yl)methyl)-1-thioxoisoindolin-2-yl)piperidine-2,6-dione]",A (0% ≤ substrate protein remaining % ≤ 80%),B (80%< substrate protein remaining %≤ 100%),B (80%< substrate protein remaining %≤ 100%),B (80%< substrate protein remaining %≤ 100%),A (0% ≤ substrate protein remaining % ≤ 80%),A (0% ≤ substrate protein remaining % ≤ 80%),,,,,,,,20 to 30%,60 to 80%
"O=C1CCC(N2Cc3c(CN4CCN(c5ccncc5Cl)CC4)cccc3C2=S)C(=O)N1 (centres unmarked) [GT-08731, 3-(4-((4-(3-chloropyridin-4-yl)piperazin-1-yl)methyl)-1-thioxoisoindolin-2-yl)piperidine-2,6-dione]",B (80%< substrate protein remaining %≤ 100%),B (80%< substrate protein remaining %≤ 100%),B (80%< substrate protein remaining %≤ 100%),B (80%< substrate protein remaining %≤ 100%),A (0% ≤ substrate protein remaining % ≤ 80%),A (0% ≤ substrate protein remaining % ≤ 80%),,,,,,,,60 to 80%,80 to 100%
"O=C1CCC(N2Cc3cc(CN4CCC(c5ncnc6sc7c(c56)CCC7)CC4)ccc3C2=S)C(=O)N1 (centres unmarked) [GT-09311, 3-(5-((4-(6,7-dihydro-5H-cyclopenta[4,5]thieno[2,3-d]pyrimidin-4-yl)piperidin-1-yl)methyl)-1-thioxoisoindolin-2-yl)piperidine-2,6-dione]",,,,,,,,B (80%< substrate protein remaining %≤ 100%),A (0% ≤ substrate protein remaining % ≤ 80%),B (80%< substrate protein remaining %≤ 100%),A (0% ≤ substrate protein remaining % ≤ 80%),A (0% ≤ substrate protein remaining % ≤ 80%),A (0% ≤ substrate protein remaining % ≤ 80%),60 to 80%,80 to 100%
"O=C1CCC(N2Cc3c(CN4CCn5c(nnc5C(F)(F)F)C4)cccc3C2=S)C(=O)N1 (centres unmarked) [GT-08365, 3-(1-thioxo-4-((3-(trifluoromethyl)-5,6-dihydro-[1,2,4]triazolo[4,3-a]pyrazin-7(8H)-yl)methyl)isoindolin-2-yl)piperidine-2,6-dione]",B (80%< substrate protein remaining %≤ 100%),B (80%< substrate protein remaining %≤ 100%),B (80%< substrate protein remaining %≤ 100%),B (80%< substrate protein remaining %≤ 100%),B (80%< substrate protein remaining %≤ 100%),A (0% ≤ substrate protein remaining % ≤ 80%),,,,,,,,40 to 53%,60 to 80%
